Results reported in patent US12636368B2, “Ionizable lipids for nucleic acid delivery” (Global Life Sciences Solutions Canada ULC, priority 2019, dated 2026).
Where two headings read alike, the source gives them in different places.

Legend:
[1] = Nucleic acid encapsulation efficiency by RiboGreen assay; assay type: physicochemical
Method: Messenger RNA or plasmid NAT was diluted using sodium acetate buffer to the required concentration. Lipid nucleic acid particle samples were then prepared by running both fluids using the NanoAssemblr® Spark instrument. […] The lipid nucleic acid particles made in the instrument were immediately diluted down with 48 μL Ca and Mg free 1×PBS at pH 7.4 in the aqueous output well. These nucleic acid lipid particles were immediately collected into microcentrifuge tubes containing 96 μL of Ca and Mg free 1×PBS at pH 7.4. Encapsulation efficiency was measured by a modified Ribogreen™ assay (Quanti-iT RiboGreen™ RNA assay kit, Fisher). Observed particle attributes were generally sized from 60-200 nm for mRNA, depending on lipid composition and method of production.
(§1) Physical characteristics of lipid nanoparticle (LNP) compositions comprising compounds according to Formula (I) and that were manufactured on the NanoAssemblr® Spark and Benchtop, are shown in Tables 6 and 7 below. Size, size variation of the LNP (PDI), encapsulation efficiency, and pKa are shown. The physical characteristics of these LNP are important from a standpoint of stability, biodistribution, and cell membrane crossing. There was good encapsulation in all the formulations, with polydispersity (PDI) under 0.3. Size and PDI were measured using dynamic light scattering techniques, and nucleic acid encapsulation efficiency was calculated from a modified Quant-iT RiboGreen RNA assay.

[2] = TNS assay, surface pKa of lipid nanoparticles; assay type: physicochemical
Method: In embodiments of the invention, the experimental pKa of formulated lipid nanoparticles comprising lipids in Table 1 is calculated using the 2-(p-toluidinyl)naphthalene-6-sulfonic acid (TNS) assay. The procedure for the TNS assay is described in Example 25.
The pKa of each cationic lipid was determined in lipid nanoparticles using an assay based on fluorescence of 6-(p-Toluidino)-2-naphthalenesulfonic acid sodium salt (TNS, Sigma Aldrich), which is a fluorescent probe for the conformational state of proteins5. Empty lipid nanoparticles comprising ionizable lipid in LM02 composition in distilled water at a concentration of 3.125 mM total lipid are formulated using NanoAssemblr® Spark™, and were then was characterized for LNP quality on the Zetasizer™ using a 30× dilution with 1×PBS in the low volume cuvette. Lipid nanoparticles were further diluted 4× using distilled water to 0.781 mM total lipid. TNS was prepared as a 25 μM stock solution in distilled water. Then 6.4 μL of diluted LNP samples of 0.781 mM total lipid were mixed with 10 μL of diluted TNS to a final volume of 250 μL with buffer containing 10 mM HEPES, 10 mM MES, 10 mM NH4OAc and 130 mM NaCl where the pH ranged from 3 to 9 in 0.5 pH increments.
Samples were mixed thoroughly, and the fluorescence intensity was measured at room temperature in a BioTek™ Synergy™ H1 Hybrid Multi-Mode Monochromator™ Fluorescence Microplate Reader using excitation and emission wavelengths of 321 nm and 445 nm respectively. A sigmoidal best fit analysis was applied to the fluorescence data using GraphPad Prism™ software, and the pKa was measured as the pH at half-maximal fluorescence intensity.

[3] = LNP size and PDI by dynamic light scattering; assay type: physicochemical
Method: After the lipid particles were made as described supra, particle size (hydrodynamic diameter of the particles) was determined by Dynamic Light Scattering (DLS) using a ZetaSizer™ Nano ZS™ (Malvern Instruments, UK). He/Ne laser tuned to 633 nm wavelength was used as the light source. Data were measured from the scattered intensity data conducted in backscattering detection mode (measurement angle=173). Measurements were an average of 10 runs of two cycles each per sample. Z-Average size was reported as the particle size, and is defined as the harmonic intensity averaged particle diameter.
as §1

[4] = system: C57BL/6 mice; test: OVA mRNA LNP intramuscular immunization, anti OVA-IgG ELISA; assay type: in vivo; settings: i.m., days 1 and 10
Excerpt: LNP with the composition LM02b were used to encapsulate OVA antigen encoded CleanCap® OVA WT mRNA [TriLink L7610] or CleanCap® OVA 5-moU mRNA [TriLink L7210]. A lipid mixture of Ionizable lipid, DOPE, Cholesterol, and PEG-DMG2000, all in ethanol, was mixed with a low PH buffered solution of OVA mRNA at an N/P ratio of 8 using a NanoAssemblr® Ignite™ microfluidic mixer. The LNP were filtered using the Amicon™ ultra filtration technique and characterized for Size, PDI and Encapsulation Efficiency. Size and PDI were measured using dynamic light scattering techniques, and nucleic acid encapsulation efficiency was calculated from the Quant-iT RiboGreen RNA assay. […]
All animals were handled according to the Institutional Animal Care and Use Committee ethics protocols. […] Aliquots of serum samples were thawed and analyzed at appropriate dilutions for OVA expression and for IgG measurements using standard ELISA techniques.
Anti OVA-IgG ELISA of serum samples: Sera from the immunized mice were collected at 2 weeks post second immunization. OVA-specific production of IgG in response to OVA-encoded mRNA in various LNPs were measured by ELISA as described supra. […] After 30 minutes of incubation, a stop solution of 2 N sulphuric acid was added and a plate reader was used to determine absorbance at 450 nm. […]

[5] = Table 6, GFP-encoded LNPs, CT10, N/P 8
[6] = Table 7, EPO mRNA LNPs, LM02, N/P 6

Encapsulation Efficiency (%) [1, 5]: 51.1%
Encapsulation Efficiency (%) [1, 6]: 95.9%
pKa ([2]; Table 1, formulated lipid nanoparticles, TNS assay, read-out: Exp. pKa): 6.45
pKa ([2]; Table 8, read-out: Exp.pKa): 6.45
Diameter (Z. ave, nm) [3, 5]: 121.5 nm
Polydispersity Index (PDI) [3, 5]: 0.39
Diameter (Z. ave, nm) [3, 6]: 65.3 nm
Polydispersity Index (PDI) [3, 6]: 0.09
Compound: CCCCC/C=C\C/C=C\CCCCCCCC(=O)O[C@@H]1[C@@H](OC(=O)CCCCCCC/C=C\C/C=C\CCCCC)CO[C@@H]1COC(=O)C1CCN(C)CC1 (racemic) [PNI 325]
immune response to OVA antigen loaded LNPs [4]: effectively elicit an immune response similar to OVA antigen
